In patent publication US12168005B2, “Methods for treating wild type isocitrate dehydrogenase 1 cancers” (University Hospitals Cleveland Medical Center, priority 2019, dated 2024):

Experiments:
[1] = 500 mg daily in humans; cited from earlier work
wild type IDH1 = molecular target: T1, wild type IDH1 (Homo sapiens, UniProt O75874); assay: wild type IDH1 enzyme activity at varying Mg2+ concentrations (FIG. 19); format: cell-based; conditions: 1 μM, Mg2+ below 0.4 mM
T1 construct: endogenous in cells; host or cells: MiaPaCa2
Text: In one embodiment, the cancer treated in accordance with any of the invention's methods contains cancer cells having a lower Magnesium^2+ (Mg^2+) concentration compared to Mg^2+ concentration in serum, such as serum from the subject and/or serum from a control subject lacking cancer.

[2] = tested on: pancreatic cancer cell line (Panc1) cells; assay: reactive oxygen species (ROS) levels in Panc1 cells; format: cell-based; conditions: 1 μM, zero mM magnesium ion, 2.5 mM glucose, Panc1, 48 hours
Protocol: ROS levels were measured by measuring 2′,7′-dichlorodihydrofluorescein diacetate (DCFDA) or MitoSOX as previously described (Zarei et al. (2017) Cancer Res; 77(16) 4460-4471).
Importantly, these low magnesium ion and low glucose conditions were consistent with the pancreatic cancer tumor microenvironment (FIG. 6).

[3] = tested on: wild type IDH1 pancreatic cancer (MiaPaCa2 cell line) xenografts; assay: pancreatic xenograft study (MiaPaCa2); format: in vivo, mice; conditions: oral 150 mg/kg
Text: FIG. 7. […] No toxicity to mice occurred at these oral doses.
No toxicity was observed.

T1 sequence (O75874 2-414): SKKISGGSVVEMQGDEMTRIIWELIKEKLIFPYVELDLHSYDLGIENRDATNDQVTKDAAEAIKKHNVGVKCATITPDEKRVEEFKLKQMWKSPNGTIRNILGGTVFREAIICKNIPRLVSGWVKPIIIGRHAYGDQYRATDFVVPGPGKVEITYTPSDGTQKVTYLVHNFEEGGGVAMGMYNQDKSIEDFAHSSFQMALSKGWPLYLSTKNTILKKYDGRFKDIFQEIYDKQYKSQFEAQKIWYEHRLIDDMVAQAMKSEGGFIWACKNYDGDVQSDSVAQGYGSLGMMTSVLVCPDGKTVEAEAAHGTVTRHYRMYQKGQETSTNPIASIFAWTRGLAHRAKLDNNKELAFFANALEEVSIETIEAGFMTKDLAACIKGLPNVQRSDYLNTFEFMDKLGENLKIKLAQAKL

SMILES: N#Cc1ccnc(N2C(=O)CC[C@H]2C(=O)N(c2cncc(F)c2)[C@H](C(=O)NC2CC(F)(F)C2)c2ccccc2Cl)c1 [AG-120, Ivosidenib]
- plasma concentration [1]: 130 µM
- reduction of wild type IDH1 enzyme activity (wild type IDH1): 50%
- increase in ROS [2]: 3 fold
- toxicity to mice [3]: No toxicity
